In publication PMC5908784, “Extracellular loops 2 and 3 of the calcitonin receptor selectively modify agonist binding and efficacy” (Biochemical Pharmacology, 2018):
Where a chain is given by its changes, count along the chain named. Where a SMILES comes first, the peptide text is derived from it. Bridges are numbered along the chain shown (N, C = ends).

What was measured:
Assay in all cases: IP1 accumulation
Format in all cases: cell-based
Conditions in all cases: mean ± S.E.M.; for Emax: IP1 maximal response, SEM
hCTR V357A = molecular target: T1, hCTR V357A (Homo sapiens, UniProt P30988, V357A)
T1 construct: c-Myc (N); expressed in transfected cells
T1 sequence (P30988 25-474 V357A): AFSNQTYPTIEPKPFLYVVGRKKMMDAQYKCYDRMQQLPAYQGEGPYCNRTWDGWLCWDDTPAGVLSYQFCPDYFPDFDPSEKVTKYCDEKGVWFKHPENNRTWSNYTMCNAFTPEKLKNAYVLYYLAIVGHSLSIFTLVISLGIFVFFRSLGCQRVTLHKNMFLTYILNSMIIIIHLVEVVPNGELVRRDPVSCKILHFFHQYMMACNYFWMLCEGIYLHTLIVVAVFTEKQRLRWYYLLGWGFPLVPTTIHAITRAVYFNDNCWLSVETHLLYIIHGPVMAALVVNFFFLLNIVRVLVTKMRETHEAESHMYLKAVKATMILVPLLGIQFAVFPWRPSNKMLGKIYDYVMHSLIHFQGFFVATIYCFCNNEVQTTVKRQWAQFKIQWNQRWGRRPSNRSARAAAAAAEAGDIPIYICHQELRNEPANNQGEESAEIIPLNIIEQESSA
Procedure, shortened: (§1)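 Ligand-induced IP1 (60 min, LiCl) measured by HTRF; normalized to 100 μM ATP response.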

hCTR S364A = molecular target: T2, hCTR S364A (Homo sapiens, UniProt P30988, S364A)
T2 construct: c-Myc (N); expressed in transfected cells
T2 sequence (P30988 25-474 S364A): T1 sequence (P30988 25-474 V357A) with A333V, S340A
Procedure, shortened: as §1

hCTR L368A = molecular target: T3, hCTR L368A (Homo sapiens, UniProt P30988, L368A)
T3 construct: c-Myc (N); expressed in transfected cells
T3 sequence (P30988 25-474 L368A): T1 sequence (P30988 25-474 V357A) with A333V, L344A
Procedure, shortened: as §1

hCTR D373A = molecular target: T4, hCTR D373A (Homo sapiens, UniProt P30988, D373A)
T4 construct: c-Myc (N); expressed in transfected cells
T4 sequence (P30988 25-474 D373A): T1 sequence (P30988 25-474 V357A) with A333V, D349A
Procedure, shortened: as §1

hCTR N286A = molecular target: T5, hCTR N286A (Homo sapiens, UniProt P30988, N286A)
T5 construct: c-Myc (N); expressed in transfected cells
T5 sequence (P30988 25-474 N286A): T1 sequence (P30988 25-474 V357A) with N262A, A333V
Procedure, shortened: as §1

[1] = IP1, CV1-FlpIn cells, 60 min, LiCl

CC[C@H](C)[C@H](NC(=O)[C@H](C)NC(=O)[C@@H](NC(=O)[C@H](CCC(N)=O)NC(=O)[C@@H]1CCCN1C(=O)[C@H](Cc1ccccc1)NC(=O)[C@@H](NC(=O)[C@H](Cc1c[nH]cn1)NC(=O)[C@H](Cc1ccccc1)NC(=O)[C@H](CCCCN)NC(=O)[C@H](CC(N)=O)NC(=O)[C@H](Cc1ccccc1)NC(=O)[C@H](CC(=O)O)NC(=O)[C@H](CCC(N)=O)NC(=O)[C@@H](NC(=O)[C@H](Cc1ccc(O)cc1)NC(=O)[C@@H](NC(=O)CNC(=O)[C@H](CC(C)C)NC(=O)[C@H](CCSC)NC(=O)[C@@H]1CSSC[C@H](N)C(=O)NCC(=O)N[C@@H](CC(N)=O)C(=O)N[C@@H](CC(C)C)C(=O)N[C@@H](CO)C(=O)N[C@@H]([C@@H](C)O)C(=O)N1)[C@@H](C)O)[C@@H](C)O)[C@@H](C)O)[C@@H](C)O)C(=O)NCC(=O)N[C@H](C(=O)NCC(=O)N[C@@H](C)C(=O)N1CCC[C@H]1C(N)=O)C(C)C [hCT]
Emax (hCTR V357A): 50 ± 4% | Emax (hCTR S364A): 93 ± 8% | Emax (hCTR L368A): 115 ± 7% | Emax (hCTR D373A): 102 ± 10% | Emax (hCTR N286A): 40 ± 3%

CSCC[C@H](NC(=O)CNC(=O)[C@H](CO)NC(=O)[C@H](Cc1ccccc1)NC(=O)[C@H](CCCNC(=N)N)NC(=O)[C@H](Cc1c[nH]cn1)NC(=O)[C@H](Cc1ccccc1)NC(=O)[C@H](CC(N)=O)NC(=O)[C@H](CC(N)=O)NC(=O)[C@H](CC(C)C)NC(=O)[C@H](CC(N)=O)NC(=O)[C@H](CCCNC(=N)N)NC(=O)[C@H](Cc1c[nH]c2ccccc12)NC(=O)[C@H](Cc1ccc(O)cc1)NC(=O)[C@H](C)NC(=O)[C@H](CO)NC(=O)[C@H](CC(C)C)NC(=O)[C@@H](NC(=O)[C@@H]1CSSC[C@H](N)C(=O)N[C@@H](CO)C(=O)N[C@@H](CC(N)=O)C(=O)N[C@@H](CC(C)C)C(=O)N[C@@H](CO)C(=O)N[C@@H]([C@@H](C)O)C(=O)N1)C(C)C)C(=O)NCC(=O)N[C@@H](Cc1ccccc1)C(=O)NCC(=O)N1CCC[C@H]1C(=O)N[C@@H](CCC(=O)O)C(=O)N[C@H](C(=O)N1CCC[C@H]1C(N)=O)[C@@H](C)O [pCT] (H-CSNLSTCVLSAYWRNLNNFHRFSGMGFGPETP-NH2; disulfide 1-7)
EC50 (hCTR V357A; [1]): 15.5 nM | Emax (hCTR V357A): 48 ± 4% | EC50 (hCTR S364A; [1]): 6.92 nM | Emax (hCTR S364A): 93 ± 6% | EC50 (hCTR L368A; [1]): 10 nM | Emax (hCTR L368A): 94 ± 9% | EC50 (hCTR D373A; [1]): 14.8 nM | Emax (hCTR D373A): 46 ± 3% | EC50 (hCTR N286A; [1]): 0.562 nM | Emax (hCTR N286A): 76 ± 6%

CC(C)C[C@H](NC(=O)[C@H](CCCCN)NC(=O)CNC(=O)[C@H](CC(C)C)NC(=O)[C@@H](NC(=O)[C@@H]1CSSC[C@H](N)C(=O)N[C@@H](CO)C(=O)N[C@@H](CC(N)=O)C(=O)N[C@@H](CC(C)C)C(=O)N[C@@H](CO)C(=O)N[C@@H]([C@@H](C)O)C(=O)N1)C(C)C)C(=O)N[C@@H](CO)C(=O)N[C@@H](CCC(N)=O)C(=O)N[C@@H](CCC(=O)O)C(=O)N[C@@H](CC(C)C)C(=O)N[C@@H](Cc1c[nH]cn1)C(=O)N[C@@H](CCCCN)C(=O)N[C@@H](CC(C)C)C(=O)N[C@@H](CCC(N)=O)C(=O)N[C@H](C(=O)N[C@@H](Cc1ccc(O)cc1)C(=O)N1CCC[C@H]1C(=O)N[C@@H](CCCNC(=N)N)C(=O)N[C@H](C(=O)N[C@@H](CC(N)=O)C(=O)N[C@H](C(=O)NCC(=O)N[C@@H](CO)C(=O)NCC(=O)N[C@H](C(=O)N1CCC[C@H]1C(N)=O)[C@@H](C)O)[C@@H](C)O)[C@@H](C)O)[C@@H](C)O [sCT]
Emax (hCTR V357A): 39 ± 3% | Emax (hCTR S364A): 87 ± 6% | Emax (hCTR L368A): 97 ± 4% | Emax (hCTR D373A): 78 ± 6% | Emax (hCTR N286A): 59 ± 5%
